Source: paper PMC5218480 (PLoS ONE, 2017)

System: MV-4-11 cells
Experiment: Gene expression microarray analysis (Affymetrix PrimeView) and GSEA
Type: cell-based, human
Set-up: RFU PODN (11730768_x_at) / Fold change /veh PODN (11730768_x_at) / RFU LINC00158 (11744669_a_at) / Fold change /veh LINC00158 (11744669_a_at) / RFU DUSP10 (11751237_a_at) / Fold change /veh DUSP10 (11751237_a_at) / RFU ID3 (11757404_x_at) / Fold change /veh ID3 (11757404_x_at) / RFU PLEKHG5 (11737974_s_at) / Fold change /veh PLEKHG5 (11737974_s_at) / RFU LRRC4B (11730491_at) / Fold change /veh LRRC4B (11730491_at) / RFU GIMAP4 (11747438_a_at) / Fold change /veh GIMAP4 (11747438_a_at) / RFU KRT8 (11758183_x_at) / Fold change /veh KRT8 (11758183_x_at) / RFU CNN1 (11734310_a_at) / Fold change /veh CNN1 (11734310_a_at) / RFU VPS37D (11726825_at) / Fold change /veh VPS37D (11726825_at) / RFU C10orf10 (11716522_x_at) / Fold change /veh C10orf10 (11716522_x_at) / RFU KIR2DL2 /// KIR2DL4 /// KIR2DL5A /// KIR2DL5B /// KIR2DS1 /// KIR2DS2 /// KIR2DS3 /// KIR2DS4 /// KIR3DL3 /// KIR3DL3 /// KIR3DS1 (11738374_at) / Fold change /veh KIR2DL2 /// KIR2DL4 /// KIR2DL5A /// KIR2DL5B /// KIR2DS1 /// KIR2DS2 /// KIR2DS3 /// KIR2DS4 /// KIR3DL3 /// KIR3DL3 /// KIR3DS1 (11738374_at) / RFU C1QL1 (11718748_at) / Fold change /veh C1QL1 (11718748_at) / RFU TMPRSS4 (11747572_a_at) / Fold change /veh TMPRSS4 (11747572_a_at) / RFU HAMP (11756126_x_at) / Fold change /veh HAMP (11756126_x_at) / RFU RNFT2 (11725882_a_at) / Fold change /veh RNFT2 (11725882_a_at) / RFU NR4A2 (11747474_a_at) / Fold change /veh NR4A2 (11747474_a_at) / RFU ABCC12 (11746883_a_at) / Fold change /veh ABCC12 (11746883_a_at) / RFU TMEM136 (11760407_x_at) / Fold change /veh TMEM136 (11760407_x_at) / RFU CLDN22 /// WWC2 (11732394_at) / Fold change /veh CLDN22 /// WWC2 (11732394_at) / RFU HLA-DPB1 (11760878_x_at) / Fold change /veh HLA-DPB1 (11760878_x_at) / RFU SPINT1 (11716480_a_at) / Fold change /veh SPINT1 (11716480_a_at) / RFU GAP43 (11754022_s_at) / Fold change /veh GAP43 (11754022_s_at) / RFU A4GNT (11735810_at) / Fold change /veh A4GNT (11735810_at) / RFU PRB3 (11715151_x_at) / Fold change /veh PRB3 (11715151_x_at) / RFU TUBB4B (11761932_at) / Fold change /veh TUBB4B (11761932_at) / RFU CAPN14 (11732068_a_at) / Fold change /veh CAPN14 (11732068_a_at) / RFU TMCC2 (11721928_a_at) / Fold change /veh TMCC2 (11721928_a_at) / RFU IRGQ (11745062_a_at) / Fold change /veh IRGQ (11745062_a_at) / RFU FAM174B (11720279_a_at) / Fold change /veh FAM174B (11720279_a_at) / RFU TMPRSS4 (11748680_a_at) / Fold change /veh TMPRSS4 (11748680_a_at) / RFU FAM212B (11763350_a_at) / Fold change /veh FAM212B (11763350_a_at) / RFU PLEKHG5 (11743358_a_at) / Fold change /veh PLEKHG5 (11743358_a_at) / RFU ZSCAN30 (11745921_a_at) / Fold change /veh ZSCAN30 (11745921_a_at) / RFU CMKLR1 (11741424_a_at) / Fold change /veh CMKLR1 (11741424_a_at) / RFU LOC101060620 /// MAPK8IP1 (11723275_at) / Fold change /veh LOC101060620 /// MAPK8IP1 (11723275_at) / RFU SPTSSB (11747773_x_at) / Fold change /veh SPTSSB (11747773_x_at) / RFU PRSS12 (11739890_at) / Fold change /veh PRSS12 (11739890_at) / RFU BIN1 (11741810_x_at) / Fold change /veh BIN1 (11741810_x_at) / RFU WNT11 (11732464_a_at) / Fold change /veh WNT11 (11732464_a_at) / RFU C10orf10 (11716521_a_at) / Fold change /veh C10orf10 (11716521_a_at) / RFU C5orf56 (11738089_at) / Fold change /veh C5orf56 (11738089_at) / RFU CYB561 (11721691_x_at) / Fold change /veh CYB561 (11721691_x_at) / RFU ANKRD19P (11752326_a_at) / Fold change /veh ANKRD19P (11752326_a_at) / RFU OR2T12 /// OR2T33 /// OR2T8 (11738714_s_at) / Fold change /veh OR2T12 /// OR2T33 /// OR2T8 (11738714_s_at) / RFU VCAN (11748164_a_at) / Fold change /veh VCAN (11748164_a_at) / RFU JSRP1 (11732532_at) / Fold change /veh JSRP1 (11732532_at) / RFU KRTAP10-11 (11738290_x_at) / Fold change /veh KRTAP10-11 (11738290_x_at) / RFU MYO3A (11730013_a_at) / Fold change /veh MYO3A (11730013_a_at) / RFU EBF3 (11725865_a_at) / Fold change /veh EBF3 (11725865_a_at) / RFU CAMK2N1 (11719241_x_at) / Fold change /veh CAMK2N1 (11719241_x_at) / RFU C5orf56 (11738088_a_at) / Fold change /veh C5orf56 (11738088_a_at) / RFU OLFML3 (11715873_a_at) / Fold change /veh OLFML3 (11715873_a_at) / RFU LOC100653217 /// NTM (11731650_a_at) / Fold change /veh LOC100653217 /// NTM (11731650_a_at) / RFU MAPK11 (11762145_a_at) / Fold change /veh MAPK11 (11762145_a_at) / RFU FIZ1 (11724087_x_at) / Fold change /veh FIZ1 (11724087_x_at) / RFU OASL (11726364_x_at) / Fold change /veh OASL (11726364_x_at) / RFU SOX15 (11748057_x_at) / Fold change /veh SOX15 (11748057_x_at) / RFU CD79A (11719716_a_at) / Fold change /veh CD79A (11719716_a_at) / RFU HIST1H1D (11736915_at) / Fold change /veh HIST1H1D (11736915_at) / RFU CASKIN2 (11723855_a_at) / Fold change /veh CASKIN2 (11723855_a_at) / RFU LOC730098 (11760151_x_at) / Fold change /veh LOC730098 (11760151_x_at) / RFU OR4N2 (11742367_at) / Fold change /veh OR4N2 (11742367_at) / RFU PRRT2 (11749266_a_at) / Fold change /veh PRRT2 (11749266_a_at) / RFU SNX32 (11753110_a_at) / Fold change /veh SNX32 (11753110_a_at) / RFU CDHR5 (11726645_a_at) / Fold change /veh CDHR5 (11726645_a_at) / RFU RCAN1 (11760418_a_at) / Fold change /veh RCAN1 (11760418_a_at) / RFU FAM167A (11723789_a_at) / Fold change /veh FAM167A (11723789_a_at) / RFU FAM26E (11764081_at) / Fold change /veh FAM26E (11764081_at) / RFU ISYNA1 (11749810_s_at) / Fold change /veh ISYNA1 (11749810_s_at) / RFU ACY1 (11761880_at) / Fold change /veh ACY1 (11761880_at) / RFU 11764098_at / Fold change /veh 11764098_at / RFU SAMD14 (11745864_x_at) / Fold change /veh SAMD14 (11745864_x_at) / RFU NPB (11741838_a_at) / Fold change /veh NPB (11741838_a_at) / RFU TMPRSS6 (11731388_a_at) / Fold change /veh TMPRSS6 (11731388_a_at) / RFU KRTAP10-2 (11738614_at) / Fold change /veh KRTAP10-2 (11738614_at) / RFU ARHGAP8 /// PRR5-ARHGAP8 (11727945_x_at) / Fold change /veh ARHGAP8 /// PRR5-ARHGAP8 (11727945_x_at) / RFU KRTAP5-7 /// NADSYN1 (11734609_at) / Fold change /veh KRTAP5-7 /// NADSYN1 (11734609_at) / RFU RASL12 (11751679_a_at) / Fold change /veh RASL12 (11751679_a_at) / RFU CDKN2B (11736163_a_at) / Fold change /veh CDKN2B (11736163_a_at) / RFU PRF1 (11729649_at) / Fold change /veh PRF1 (11729649_at) / RFU, ZNF638 /// ZNF638-IT1 / Fold change vs veh, ZNF638 /// ZNF638-IT1 / RFU, PANK3 / Fold change vs veh, PANK3 / RFU, SH3YL1 / Fold change vs veh, SH3YL1 / RFU, ZEB2 / Fold change vs veh, ZEB2 / RFU, NRIP1 / Fold change vs veh, NRIP1 / RFU, PTTG1IP / Fold change vs veh, PTTG1IP / RFU, CAPN2 / Fold change vs veh, CAPN2 / RFU, MED14 / Fold change vs veh, MED14 / RFU, SNORA58 / Fold change vs veh, SNORA58 / RFU, C1orf63 / Fold change vs veh, C1orf63 / RFU, LRRFIP1 / Fold change vs veh, LRRFIP1 / RFU, NDUFAF7 / Fold change vs veh, NDUFAF7 / RFU, SLC12A2 / Fold change vs veh, SLC12A2 / RFU, IBTK / Fold change vs veh, IBTK / RFU, ESF1 / Fold change vs veh, ESF1 / Fold change vs veh, TMEM50B / RFU, TAOK1 / Fold change vs veh, TAOK1 / RFU, ACBD3 / Fold change vs veh, ACBD3 / RFU, TMA16 / Fold change vs veh, TMA16 / RFU, RWDD3 / Fold change vs veh, RWDD3 / RFU, BCAT1 / Fold change vs veh, BCAT1 / RFU, EDEM3 / Fold change vs veh, EDEM3 / RFU, TMEM33 / Fold change vs veh, TMEM33 / RFU, WDR75 / Fold change vs veh, WDR75 / RFU, AHCTF1 / Fold change vs veh, AHCTF1 / RFU, TFRC / Fold change vs veh, TFRC / RFU, ZDHHC17 / Fold change vs veh, ZDHHC17 / RFU, NOM1 / Fold change vs veh, NOM1 / RFU, ARL8B / Fold change vs veh, ARL8B / RFU, ZBTB11 / Fold change vs veh, ZBTB11 / RFU, TAMM41 / Fold change vs veh, TAMM41 / RFU, KIAA1704 /// LOC100996395 / Fold change vs veh, KIAA1704 /// LOC100996395 / RFU, ING1 / Fold change vs veh, ING1 / RFU, TRMT61B / Fold change vs veh, TRMT61B / RFU, FUBP3 / Fold change vs veh, FUBP3 / RFU, TP53 / Fold change vs veh, TP53 / RFU, TNKS2 / Fold change vs veh, TNKS2 / RFU, ZFP14 / Fold change vs veh, ZFP14 / RFU, ACTR2 / Fold change vs veh, ACTR2 / RFU, PPP3R1 / Fold change vs veh, PPP3R1 / RFU, PIK3R1 / Fold change vs veh, PIK3R1 / RFU, HNRNPA1 / Fold change vs veh, HNRNPA1 / RFU, RNF170 / Fold change vs veh, RNF170 / RFU, ZNF28 / Fold change vs veh, ZNF28 / RFU, RNGTT / Fold change vs veh, RNGTT / RFU, OGT / Fold change vs veh, OGT / RFU, BRD1 / Fold change vs veh, BRD1 / RFU, MARS / Fold change vs veh, MARS / RFU, ZNF655 / Fold change vs veh, ZNF655 / RFU, FAHD1 / Fold change vs veh, FAHD1 / RFU, BDP1 / Fold change vs veh, BDP1 / RFU, LRRCC1 / Fold change vs veh, LRRCC1 / RFU, ARID1A / Fold change vs veh, ARID1A / RFU, ZNF146 / Fold change vs veh, ZNF146 / RFU, ZNF330 / Fold change vs veh, ZNF330 / RFU, GPN3 / Fold change vs veh, GPN3 / RFU, C9orf123 / Fold change vs veh, C9orf123 / RFU, N4BP2L2 / Fold change vs veh, N4BP2L2 / RFU, ARFIP1 / Fold change vs veh, ARFIP1 / RFU, FAM179B / Fold change vs veh, FAM179B / RFU, BCL10 / Fold change vs veh, BCL10 / RFU, UHRF1BP1L / Fold change vs veh, UHRF1BP1L / RFU, BET1 / Fold change vs veh, BET1 / RFU, CNOT2 / Fold change vs veh, CNOT2 / RFU, ZNF268 / Fold change vs veh, ZNF268 / Fold change vs veh, ZNF507 / RFU, DGCR2 / Fold change vs veh, DGCR2 / RFU, WDSUB1 / Fold change vs veh, WDSUB1 / Fold change vs veh, HSP90B1 /// MIR3652 / RFU, ADSS / Fold change vs veh, ADSS / RFU, GK / Fold change vs veh, GK / RFU, ZNF148 / Fold change vs veh, ZNF148 / RFU, TAF9 / Fold change vs veh, TAF9 / RFU, SLC1A5 / Fold change vs veh, SLC1A5 / RFU, SLMO2 / Fold change vs veh, SLMO2 / RFU, ABCC4 / Fold change vs veh, ABCC4 / RFU, LOC101060439 /// RAP1B / Fold change vs veh, LOC101060439 /// RAP1B / RFU, RFX7 / Fold change vs veh, RFX7 / RFU, GTPBP10 / Fold change vs veh, GTPBP10 / RFU, CNEP1R1 / Fold change vs veh, CNEP1R1 / RFU, BIVM-ERCC5 /// ERCC5 / Fold change vs veh, BIVM-ERCC5 /// ERCC5 / RFU, ILF3 / Fold change vs veh, ILF3 / RFU 11762660_at / Fold change /veh 11762660_at / RFU VCAN (11757783_s_at) / Fold change /veh VCAN (11757783_s_at) / RFU DDX43 (11728927_at) / Fold change /veh DDX43 (11728927_at) / RFU KRT8 (11758188_x_at) / Fold change /veh KRT8 (11758188_x_at) / RFU NKD1 (11759106_at) / Fold change /veh NKD1 (11759106_at) / RFU SRD5A1 (11742802_a_at) / Fold change /veh SRD5A1 (11742802_a_at) / RFU TPSAB1 /// TPSB2 (11721975_s_at) / Fold change /veh TPSAB1 /// TPSB2 (11721975_s_at) / RFU GSTM3 (11746129_a_at) / Fold change /veh GSTM3 (11746129_a_at) / RFU IL23R (11737362_x_at) / Fold change /veh IL23R (11737362_x_at) / RFU TMEM51 (11727254_a_at) / Fold change /veh TMEM51 (11727254_a_at) / RFU PIWIL2 (11732686_x_at) / Fold change /veh PIWIL2 (11732686_x_at) / RFU ORM1 (11744905_x_at) / Fold change /veh ORM1 (11744905_x_at) / RFU CCDC152 (11743942_at) / Fold change /veh CCDC152 (11743942_at) / RFU ECM1 (11717891_a_at) / Fold change /veh ECM1 (11717891_a_at) / RFU IL23R (11748794_a_at) / Fold change /veh IL23R (11748794_a_at) / RFU TNFAIP8L3 (11732012_x_at) / Fold change /veh TNFAIP8L3 (11732012_x_at) / RFU MBOAT4 (11741988_at) / Fold change /veh MBOAT4 (11741988_at) / RFU 11764193_at / Fold change /veh 11764193_at / RFU TMEM53 (11763286_at) / Fold change /veh TMEM53 (11763286_at) / RFU MAGEB2 (11727129_at) / Fold change /veh MAGEB2 (11727129_at) / RFU TMEM200A (11744735_a_at) / Fold change /veh TMEM200A (11744735_a_at) / RFU CCDC152 (11751479_a_at) / Fold change /veh CCDC152 (11751479_a_at) / RFU FAM211A (11726209_a_at) / Fold change /veh FAM211A (11726209_a_at) / RFU RGS16 (11746705_a_at) / Fold change /veh RGS16 (11746705_a_at) / RFU VCAN (11755009_s_at) / Fold change /veh VCAN (11755009_s_at) / RFU RHOB (11743442_s_at) / Fold change /veh RHOB (11743442_s_at) / RFU RGS16 (11720943_a_at) / Fold change /veh RGS16 (11720943_a_at) / RFU RGS16 (11720944_at) / Fold change /veh RGS16 (11720944_at) / RFU, VPS4B / Fold change vs veh, VPS4B / RFU, CREB1 / Fold change vs veh, CREB1 / RFU, DNAJC13 / Fold change vs veh, DNAJC13 / RFU, GNAQ / Fold change vs veh, GNAQ / RFU, CDK5R1 / Fold change vs veh, CDK5R1 / RFU, ZRANB3 / Fold change vs veh, ZRANB3 / RFU, CUL4A / Fold change vs veh, CUL4A / RFU, CCNY / Fold change vs veh, CCNY / RFU, UFL1 / Fold change vs veh, UFL1 / RFU, COG3 / Fold change vs veh, COG3 / RFU, DIAPH2 / Fold change vs veh, DIAPH2 / RFU, SKA2 / Fold change vs veh, SKA2 / RFU, AFF3 / Fold change vs veh, AFF3 / RFU, LMF1 / Fold change vs veh, LMF1 / RFU, IPO11 / Fold change vs veh, IPO11 / RFU, DFFB / Fold change vs veh, DFFB / RFU, FOXP1 / Fold change vs veh, FOXP1 / RFU, CARD8 / Fold change vs veh, CARD8 / RFU, STRN3 / Fold change vs veh, STRN3 / RFU, ADK / Fold change vs veh, ADK / RFU, RASSF2 / Fold change vs veh, RASSF2 / RFU, WIPF1 / Fold change vs veh, WIPF1 / RFU, LARP1B / Fold change vs veh, LARP1B / RFU, RASA1 / Fold change vs veh, RASA1 / RFU, RB1 / Fold change vs veh, RB1 / RFU, PPFIA1 / Fold change vs veh, PPFIA1 / RFU, MAT2A / Fold change vs veh, MAT2A / RFU, CCT5 / Fold change vs veh, CCT5 / RFU, WDR92 / Fold change vs veh, WDR92 / RFU, CUX1 / Fold change vs veh, CUX1 / RFU, TTC7A / Fold change vs veh, TTC7A / RFU, TMEM135 / Fold change vs veh, TMEM135 / RFU, DEPTOR / Fold change vs veh, DEPTOR / RFU, CPM / Fold change vs veh, CPM / RFU, DNAJB6 / Fold change vs veh, DNAJB6 / RFU, CACNA2D3 / Fold change vs veh, CACNA2D3 / RFU, DTX4 / Fold change vs veh, DTX4 / RFU, TFCP2 / Fold change vs veh, TFCP2 / RFU, GMCL1 /// GMCL1P1 / Fold change vs veh, GMCL1 /// GMCL1P1 / RFU, AEBP2 / Fold change vs veh, AEBP2 / RFU, SNHG1 /// SNORD22 /// SNORD25 /// SNORD26 /// SNORD27 /// SNORD28 /// SNORD29 /// SNORD31 / Fold change vs veh, SNHG1 /// SNORD22 /// SNORD25 /// SNORD26 /// SNORD27 /// SNORD28 /// SNORD29 /// SNORD31 / Fold change (Aza/veh), C12orf56 (ProbeSet 11735607_a_at) / Fold change (ACY-1035/veh), C12orf56 (ProbeSet 11735607_a_at) / Fold change (Aza/veh), FGFR1OP (ProbeSet 11751329_s_at) / Fold change (ACY-1035/veh), FGFR1OP (ProbeSet 11751329_s_at) / Fold change (Aza/veh), VPS36 (ProbeSet 11739960_a_at) / Fold change (ACY-1035/veh), VPS36 (ProbeSet 11739960_a_at) / RFU SYPL1 (11715823_x_at) / Fold change /veh SYPL1 (11715823_x_at) / RFU IGFBP7 (11715501_s_at) / Fold change /veh IGFBP7 (11715501_s_at) / RFU REEP3 (11722064_at) / Fold change /veh REEP3 (11722064_at) / RFU IGLL1 (11728026_x_at) / Fold change /veh IGLL1 (11728026_x_at): dose or concentration left out as unconfirmed
Settings: ProbeSet 11745428_a_at; LIST D

Structure (SMILES): Nc1ccc(-c2cccs2)cc1NC(=O)c1ccc2c(c1)cc(C1CC1)n2CCN1CCOCC1 [ACY-1035]
- Fold change vs veh, DFFB: 0.87
